Experimental findings from the PolyMetriX glass transition set are described below.

Take `*/C=C(/*)c1c(C)cc(C(C)(C)C)cc1C` (repeat unit): the glass transition temperature came to 200.00 °C. As to `*/N=N/c1ccc(Nc2ccc(C(=O)c3ccc(C(=O)c4ccc(Nc5ccc(*)cc5)cc4)cc3)cc2)cc1` (repeat unit), the glass transition temperature worked out at 203.00 °C. Take `*C(=O)Nc1ccc(C(=O)c2ccc(NC(=O)c3ccc4c(c3)C(=O)N(c3ccc(NC(=O)Nc5ccc(N6C(=O)c7ccc(*)cc7C6=O)cc5)cc3)C4=O)cc2)cc1` (repeat unit): the glass transition temperature is 212.00 °C. In the case of `*C(=O)Nc1ccc(Cc2ccc(NC(=O)c3ccc(N4C(=O)c5ccc(*)cc5C4=O)cc3)cc2)cc1` (repeat unit), the glass transition temperature was determined as 222.00 °C.

The compound `*C(=O)Nc1ccc(Cc2ccc(NC(=O)c3ccc4c(c3)C(=O)N(c3ccc(Oc5ccc6ccc(Oc7ccc(N8C(=O)c9ccc(*)cc9C8=O)cc7)cc6c5)cc3)C4=O)cc2)cc1` (repeat unit) came in with a glass transition temperature of 273.00 °C.

`*C(=O)Nc1ccc(Cc2ccc(NC(=O)c3ccc4c(c3)C(=O)N(c3cccc(P(=O)(c5ccccc5)c5cccc(N6C(=O)c7ccc(*)cc7C6=O)c5)c3)C4=O)cc2)cc1` (repeat unit) showed a glass transition temperature of 233.00 °C. For `*C(=O)Nc1ccc(NC(=O)c2ccc3c(c2)C(=O)N(c2cc(-c4nc5ccccc5s4)cc(N4C(=O)c5ccc(*)cc5C4=O)c2)C3=O)cc1` (repeat unit) the value was 356.00 °C; for `*C(=O)Nc1ccc(NC(=O)c2ccc3c(c2)C(=O)N(c2cccc(N4C(=O)c5ccc(*)cc5C4=O)c2)C3=O)cc1` (repeat unit), 341.00 °C. To `*C(=O)Nc1ccc(Oc2ccc(-c3ccc(Oc4ccc(NC(=O)c5ccc6c(c5)C(=O)N(c5cccc(N7C(=O)c8ccc(*)cc8C7=O)c5)C6=O)cc4)cc3)cc2)cc1` (repeat unit) belongs 292.00 °C; to `*C(=O)Nc1ccc(Oc2ccc(C(c3ccc(Oc4ccc(NC(=O)c5ccc6c(c5)C(=O)N(c5ccc(Oc7cccc8c(Oc9ccc(N%10C(=O)c%11ccc(*)cc%11C%10=O)cc9)cccc78)cc5)C6=O)cc4)cc3)(C(F)(F)F)C(F)(F)F)cc2)cc1` (repeat unit), 231.00 °C; to `*C(=O)Nc1ccc(Oc2ccc(C3(c4ccc(Oc5ccc(NC(=O)c6ccc7c(c6)C(=O)N(c6ccc(Oc8ccc(Oc9ccc(N%10C(=O)c%11ccc(*)cc%11C%10=O)cc9)cc8)cc6)C7=O)cc5)cc4)NC(=O)c4ccccc43)cc2)cc1` (repeat unit), 284.00 °C. Regarding `*C(=O)Nc1ccc(Oc2ccc(C3(c4ccc(Oc5ccc(NC(=O)c6ccc7c(c6)C(=O)N(c6ccc(Oc8ccc(S(=O)(=O)c9ccc(Oc%10ccc(N%11C(=O)c%12ccc(*)cc%12C%11=O)cc%10)cc9)cc8)cc6)C7=O)cc5)cc4)NC(=O)c4ccccc43)cc2)cc1` (repeat unit), the glass transition temperature was determined as 283.00 °C. `*C(=O)Nc1ccc(Oc2ccc(NC(=O)c3ccc(N4C(=O)c5ccc(*)cc5C4=O)cc3)cc2)cc1` (repeat unit) yielded a glass transition temperature of 296.00 °C. For `*C(=O)c1ccc2c(c1)C(=O)N(c1ccc(Oc3ccc(C(=O)c4ccc(C(=O)c5ccc(C(=O)c6ccc(Oc7ccc(N8C(=O)c9ccc(*)cc9C8=O)cc7)cc6)cc5)cc4)cc3)cc1)C2=O` (repeat unit) the value was 233.00 °C.

`*CCCCCCCCOc1ccc(NC(=O)c2cccc(C(=O)Nc3ccc(O*)cc3)c2)cc1` (repeat unit): the glass transition temperature was 128.00 °C. As to `*COC(=O)Nc1ccc(Cc2ccc(NC(=O)OCc3cocc3*)cc2)cc1` (repeat unit), the glass transition temperature was found to be 45.00 °C. As for `*Nc1ccc(Cc2ccc(NC(=O)c3cc(C(*)=O)cc(N4C(=O)C5C6CCC(C6)C5C4=O)c3)cc2)cc1` (repeat unit), the glass transition temperature amounted to 293.00 °C. As for `*Nc1ccc(Cc2ccc(NC(=O)c3cc(C(*)=O)cc(S(=O)(=O)c4ccccc4)c3)cc2)cc1` (repeat unit), the glass transition temperature came to 270.00 °C. The compound `*Nc1ccc(Cc2ccc(NC(=O)c3ccc(C(*)=O)cc3)cc2)cc1` (repeat unit) came in with a glass transition temperature of 294.50 °C. Regarding `*Nc1ccc(Cc2ccc(NC(=O)c3cccc(C(*)=O)c3)cc2)cc1` (repeat unit), the glass transition temperature was determined as 265.00 °C. On to `*Nc1ccc(NC(=O)c2cc(C(=O)c3ccc(C(=O)O)c(C(*)=O)c3)ccc2C(=O)O)cc1` (repeat unit), for which the glass transition temperature was found to be 213.20 °C. For `*Nc1ccc(NC(=O)c2ccc(C(=O)c3ccc(C(*)=O)c(C(=O)O)c3)cc2C(=O)O)cc1` (repeat unit), the glass transition temperature is 317.00 °C.

`*Nc1ccc(NC(=O)c2ccc(P(=O)(c3ccccc3)c3ccc(C(*)=O)cc3)cc2)cc1` (repeat unit) returned a glass transition temperature of 252.00 °C. For the compound `*Nc1ccc(Nc2ccc(C(=O)c3ccc(C(=O)c4ccc(*)cc4)cc3)cc2)cc1` (repeat unit), the glass transition temperature was determined as 203.50 °C. For `*OP(=O)(Oc1ccc(NC(=O)OCCCCCCOC(=O)Nc2ccc(*)cc2)cc1)c1ccccc1` (repeat unit) the value was -3.00 °C; for `*Oc1ccc(C(c2ccc(OC(=O)Nc3ccc(Cc4ccc(NC(*)=O)cc4)cc3)cc2)(C(F)(F)F)C(F)(F)F)cc1` (repeat unit), 81.00 °C. For the compound `*Oc1ccc(C(c2ccc(Oc3ccc(C(=O)Nc4ccc(NC(=O)c5ccc(*)cc5)cc4)cc3)cc2)(C(F)(F)F)C(F)(F)F)cc1` (repeat unit), the glass transition temperature is 218.00 °C. On to `*Oc1ccc(NC(=C(C#N)C#N)c2ccc(-c3ccc(-c4ccc(C(Nc5ccc(*)cc5)=C(C#N)C#N)cc4)cc3)cc2)cc1` (repeat unit), for which the glass transition temperature amounted to 240.00 °C. As for `*Oc1ccc(NC(=C(C#N)C#N)c2ccc3cc(C(Nc4ccc(*)cc4)=C(C#N)C#N)ccc3c2)cc1` (repeat unit), the glass transition temperature was determined as 280.00 °C.

For `*Oc1ccc(NC(=O)Nc2ccccc2CCc2ccccc2NC(=O)Nc2ccc(*)cc2)cc1` (repeat unit), the glass transition temperature was 232.00 °C. In turn, `*Oc1ccc(NC(=O)c2cc(C(=O)Nc3ccc(*)cc3)cc(C(F)(F)C(F)(F)C(F)(F)C(F)(F)C(F)(F)C(F)(F)C(F)(F)C(F)(F)F)c2)cc1` (repeat unit) came in with a glass transition temperature of 230.00 °C. Consider `*Oc1ccc(NC(=O)c2cc(C(=O)Nc3ccc(*)cc3)cc(S(=O)(=O)c3ccccc3)c2)cc1` (repeat unit), for which the glass transition temperature was 279.00 °C. `*Oc1ccc(NC(=O)c2ccc(-c3ccc(C(=O)Nc4ccc(Oc5ccc(C6(c7ccc(*)cc7)CC7CCC6C7)cc5)cc4)cc3)cc2)cc1` (repeat unit): the glass transition temperature came to 296.00 °C. For the compound `*Oc1ccc(NC(=O)c2ccc(C(=O)Nc3ccc(OC4COC5C(*)COC45)cc3)cc2)cc1` (repeat unit), the glass transition temperature is 57.00 °C.

The compound `*Oc1ccc(NC(=O)c2ccc(C(=O)Nc3ccc(Oc4ccc(C(=O)c5ccc(*)cc5)cc4)cc3)cc2)cc1` (repeat unit) registered a glass transition temperature of 160.00 °C.

With `*Oc1ccc(NC(=O)c2ccc(OC3COC4C(Oc5ccc(C(=O)Nc6ccc(OC7COC8C(*)COC78)cc6)cc5)COC34)cc2)cc1` (repeat unit), the glass transition temperature amounted to 165.00 °C. To `*Oc1ccc(NC(=O)c2ccc(P(=O)(c3ccccc3)c3ccc(C(=O)Nc4ccc(*)cc4)cc3)cc2)cc1` (repeat unit) belongs 254.00 °C. For the compound `*Oc1ccc(NC(=O)c2ccc3cc(C(=O)Nc4ccc(Oc5ccc(C6(c7ccc(*)cc7)CC7CCC6C7)cc5)cc4)ccc3c2)cc1` (repeat unit), the glass transition temperature was determined as 276.00 °C. To `*Oc1ccc(NC(=O)c2cccc(C(=O)Nc3ccc(Oc4ccc(C(=O)c5ccc(*)cc5)cc4)cc3)c2)cc1` (repeat unit) belongs 145.00 °C. `*Oc1ccc(NC(=O)c2cccc(C(=O)Nc3ccc(Oc4ccc(C5(c6ccc(*)cc6)CC6CCC5C6)cc4)cc3)c2)cc1` (repeat unit) returned a glass transition temperature of 256.00 °C. To `*Oc1ccc(Nc2ccc(C(=O)c3ccc(C(=O)c4ccc(Nc5ccc(*)cc5)cc4)cc3)cc2)cc1` (repeat unit) belongs 215.00 °C; to `*c1ccc(-c2cc(-c3ccc(-c4ccccc4)cc3)cc(-c3ccc(N4C(=O)c5ccc(NC(=O)Nc6ccc(Oc7ccc(NC(=O)Nc8ccc9c(c8)C(=O)N(*)C9=O)cc7)cc6)cc5C4=O)cc3)n2)cc1` (repeat unit), 241.00 °C; to `*c1ccc(Oc2ccc(C(=O)c3ccc(C(=O)c4ccc(C(=O)c5ccc(Oc6ccc(-c7nc(-c8ccccc8)[nH]c7*)cc6)cc5)cc4)cc3)cc2)cc1` (repeat unit), 239.00 °C. The compound `*c1ccc(Oc2ccc(C(=O)c3ccc(C(=O)c4ccc(Oc5ccc(-c6nc(-c7ccc(-c8nc(*)c(-c9ccccc9)[nH]8)cc7)[nH]c6-c6ccccc6)cc5)cc4)cc3)cc2)cc1` (repeat unit) had a glass transition temperature of 278.00 °C. Turning to `*c1ccc(Oc2ccc(NC(=O)c3ccc(C(=O)Nc4ccc(Oc5ccc(-c6nnc(*)o6)cc5)cc4)c(Oc4ccccc4)c3)cc2)cc1` (repeat unit), the glass transition temperature turned out to be 245.00 °C. To `*c1ccc2c(c1)C(=O)N(c1ccc(C(=O)Nc3ccc(Oc4ccc(-c5ccc(Oc6ccc(NC(=O)c7ccc(N8C(=O)c9ccc(C(*)(C(F)(F)F)C(F)(F)F)cc9C8=O)cc7)cc6)cc5)cc4)cc3)cc1)C2=O` (repeat unit) belongs 296.00 °C. Regarding `*c1ccc2c(c1)C(=O)N(c1ccc(C(=O)Nc3ccc(Oc4ccc(C(c5ccc(Oc6ccc(NC(=O)c7ccc(N8C(=O)c9ccc(C(*)(C(F)(F)F)C(F)(F)F)cc9C8=O)cc7)cc6)cc5)(C(F)(F)F)C(F)(F)F)cc4)cc3)cc1)C2=O` (repeat unit), the glass transition temperature was 293.00 °C.

With `*c1ccc2c(c1)C(=O)N(c1ccc(C(=O)Nc3ccc(Oc4ccc(NC(=O)c5ccc(N6C(=O)c7ccc(C(*)(C(F)(F)F)C(F)(F)F)cc7C6=O)cc5)cc4)cc3)cc1)C2=O` (repeat unit), the glass transition temperature worked out at 322.00 °C. In turn, `*c1cccc(C(=O)Nc2ccc(Oc3ccc(-c4ccc(Oc5ccc(NC(=O)c6cccc(N7C(=O)c8ccc(-c9ccc%10c(c9)C(=O)N(*)C%10=O)cc8C7=O)c6)cc5)cc4)cc3)cc2)c1` (repeat unit) showed a glass transition temperature of 270.00 °C.
